Measured values taken from ChEMBL document CHEMBL3507680, “University of Dundee, Gates Library screen for HepG2 cell viability”.

Assay: Human HepG2 cell viability assay in 384 well format
Type: toxicity, cell-based
Parameters: dose 125 nL, time 70.5 hour; concentration not given beside the values
Details: HepG2 cells, read-out: Inhibition

Row | Compound | cytotoxicity at 70.5 h [%]
1 | Fc1ccc(-c2cnc(CN3CCn4c(nnc4C4CC4)C3)o2)cc1 | -9.29
2 | N#CC1(C(=O)N2CCCN(c3nccs3)CC2)CCCC1 | -11
3 | Cc1cc2n(n1)CC(CNCc1ccc(-n3ccnc3C)nc1)CN2 (stereo not drawn) | -20.7
4 | Cc1noc(C)c1CCC(=O)N1CCCN(C)CC1 | -3.68
5 | CC(C(=O)NCc1ccnc(N2CCN(C)CC2)c1)S(C)(=O)=O (stereo not drawn) | 22.3
6 | CN(Cc1ccsc1)C(=O)c1ccc2c(c1)NC(=O)CO2 | -7.5
7 | CC(C(=O)NCc1ccnc(N2CCCC2)c1)n1cccn1 (stereo not drawn) | -10.3
8 | CC(NC(=O)CCc1ccsc1)c1ccc2c(c1)NC(=O)CO2 (stereo not drawn) | -6.31
9 | Cc1noc(C)c1CCC(=O)N1CCN(Cc2cscn2)CC1 | -2.32
10 | Cc1noc(C)c1CC(=O)N1CCN(Cc2cscn2)CC1 | -1.94
11 | Cc1csc(N2CCN(C(=O)C3(C#N)CCCC3)CC2)n1 | -5.35
12 | Cc1cc2n(n1)CC(CNCc1ccc(N3CCOCC3)nc1)CN2 (stereo not drawn) | -9.07
13 | Cc1ccc(CNCC2CNc3cc(C)nn3C2)cn1 (stereo not drawn) | 15.9
14 | N#CC1(C(=O)N2CCCN(c3nccs3)CC2)CCCCC1 | -4.97
15 | CC(C(=O)NCc1ccnc(N2CCOCC2)c1)n1cccn1 (stereo not drawn) | -10.1
16 | CC(NC(=O)c1ccsc1)c1ccc2c(c1)NC(=O)CO2 (stereo not drawn) | -3.38
17 | Cc1noc(C)c1CCC(=O)N1CCCN(CC(N)=O)CC1 | -16.1
18 | COCCOc1ccc(CNCC2CNc3cc(C)nn3C2)cn1 (stereo not drawn) | -4.87
19 | CCOc1ccccc1C(CC(=O)Nc1ncc(C)s1)NC(C)=O (stereo not drawn) | 14.6
20 | CCOc1ccccc1C(CC(=O)Nc1ccncc1)NC(C)=O (stereo not drawn) | -7.74
21 | COC(=O)c1cc(C(=O)N2CCCCC2C)n(-c2ccccc2)n1 (stereo not drawn) | 19.1
22 | Cc1cc(C)n(CC2CCCCN2C(=O)CCc2ccncc2)n1 (stereo not drawn) | -0.893
23 | Cc1cnn(CC2CN(Cc3nc(-c4ccsc4)no3)CCO2)c1 (stereo not drawn) | -14.2
24 | Cc1cnn(CCNCc2nnc(Cc3ccccc3)o2)c1 | -1.13

Row | Compound | cytotoxicity at 70.5 h [%]
25 | Fc1ccccc1-c1nc(CNCCn2cccn2)cs1 | -3.88
26 | Cc1ccc(-c2nc(CNC(C)Cn3cccn3)cs2)o1 (stereo not drawn) | -3.26
27 | Cc1cc(C)c(CNC(=O)c2ccc3c(c2)CCC3)c(=O)[nH]1 | 4.13
28 | CC(C)Oc1ncccc1CNC(=O)N1CCSCC1 | -2.87
29 | O=C(Cc1ccc2c(c1)CCO2)N1CCN(c2nccs2)CC1 | -2.11
30 | Cn1ccnc1CN1CCN(CCOc2cccc(C#N)c2)CC1 | -0.0786
31 | CC1CN(CCOc2cccc(C#N)c2)CCN1Cc1nccn1C (stereo not drawn) | -3.4
32 | Cc1nc(C2CCCN(C(=O)Cn3ccccc3=O)C2)sc1C (stereo not drawn) | -2.49
33 | Cc1csc(C2CCCN(C(=O)Cn3ccccc3=O)C2)n1 (stereo not drawn) | -3.71
34 | Cc1nc(C2CCCN2C(=O)c2csc3c2CCCC3)no1 (stereo not drawn) | -1.72
35 | Cc1nc(C2CCCN2CCC(=O)N2CCc3ccccc32)no1 (stereo not drawn) | 4.14
36 | Cc1cc(C2CCCN2C(=O)c2cc3c(s2)CCC3)no1 (stereo not drawn) | -0.925
37 | CCc1nc(CN2CCCC(NCc3nc4ccccc4o3)C2)no1 (stereo not drawn) | -1.56
38 | Cn1cc(C2CCCN2C(=O)CCc2cnn(-c3ccccc3)c2)cn1 (stereo not drawn) | -3.27
39 | CC(C)c1noc(CCCC(=O)N2CCN(Cc3cccnc3)CC2)n1 | -13
40 | CC(Cn1cccn1)NC(=O)NCCc1cccnc1 (stereo not drawn) | -8.85
41 | Cc1csc(CCNC(=O)NC(C)Cn2cccn2)n1 (stereo not drawn) | 19
42 | Cc1cccc(CN(C(=O)NCc2ccccn2)C2CC2)c1 | -8.28
43 | CC(Cn1cccn1)NC(=O)NCCc1ccsc1 (stereo not drawn) | 15.4
44 | CS(=O)(=O)c1ccc(CNC(=O)Nc2cn[nH]c2)cc1 | -12.4
45 | Cn1cc(NS(=O)(=O)c2ccc3c(c2)CCCC3)ccc1=O | 22.1
46 | CCOc1ccc2c(c1)CN(Cc1nc3c(cnn3C)c(=O)[nH]1)CC2 | -4.82
47 | Cc1cc(C2CCCN2Cc2nc3c(cnn3C)c(=O)[nH]2)on1 (stereo not drawn) | -8.83
48 | COC(=O)c1ccc(N2CCN(C(=O)c3cnc(C)cn3)C(C)C2)cc1 (stereo not drawn) | -11

Row | Compound | cytotoxicity at 70.5 h [%]
49 | COC(=O)c1ccc(N2CCN(C(=O)c3cccnc3)C(C)C2)cc1 (stereo not drawn) | -4.39
50 | Cc1ccccc1C1CCCN1Cc1nc2c(cnn2C)c(=O)[nH]1 (stereo not drawn) | -9.08
51 | CNS(=O)(=O)c1ccc(CNC(=O)Nc2cn[nH]c2)cc1 | -5.63
52 | Cn1ncc2c(=O)[nH]c(CN3CCCC3c3ccsc3)nc21 (stereo not drawn) | -7.44
53 | CCn1cnnc1C1CCN(C(=O)c2cc(C)c(C)s2)CC1 | 15.5
54 | CCn1cnnc1C1CCN(C(=O)c2cc3c(s2)CCCC3)CC1 | -9.56
55 | COC(=O)c1ccc(N2CCN(C(=O)c3cc(C)no3)C(C)C2)cc1 (stereo not drawn) | -12
56 | Cc1nc(CN2CCCC(NCc3ccc(C(N)=O)cc3)C2)no1 (stereo not drawn) | -4.31
57 | Cc1cc(NC(=O)CNC2CCc3ncnn3C2)no1 (stereo not drawn) | -18.6
58 | CCc1nc2n(n1)CC(NCCC(=O)Nc1cc(C)on1)CC2 (stereo not drawn) | -6.35
59 | CNS(=O)(=O)c1ccc(C(=O)NCCNc2ncccn2)cc1 | -12.3
60 | O=C(Cc1ccc2c(c1)CCCC2)NCCc1ccccn1 | -5.18
61 | COc1cc(CCC(=O)NC2CC2)ccc1OCC(F)(F)F | -15.3
62 | Cc1cccc(CN(C)Cc2nc3c(cnn3C)c(=O)[nH]2)c1 | -14.2
63 | Cc1ccc(CNC(=O)CN2C=Nc3ccccc3S2(=O)=O)s1 | -11.3
64 | CC(C)CNC(=O)CN1C=Nc2ccccc2S1(=O)=O | 20.2
65 | CCc1c(C(=O)N2CCCN(C(C)=O)CC2)cnn1C(C)(C)C | -0.109
66 | Cc1cccc(-n2ncc(C(=O)N3CCn4c(C)nnc4C3)c2C)c1 | -10.4
67 | CCOc1ccnc(N2CCN(C(=O)c3cccc(C#N)c3)CC2)n1 | -6.91
68 | CC(C)c1nc(C(=O)NCCn2ccnc2)nn1-c1cccc(F)c1 | -14.8
69 | Cn1cnc2c1CCN(Cc1noc(-c3ccccc3)n1)C2 | -6.44
70 | Cc1nn(C)c(C)c1C1CCCN1C(=O)CCNc1ncccn1 (stereo not drawn) | -4.27
71 | CC(=O)NCc1ccc(C(=O)N2CCCC2c2cnn(C)c2)o1 (stereo not drawn) | -13.1
72 | CCc1ncncc1C(=O)N1CCN(Cc2ccco2)CC1 | 10.8

Row | Compound | cytotoxicity at 70.5 h [%]
73 | Cc1ccc(CC(=O)N2CSCC2C(=O)N(C)Cc2ccco2)o1 (stereo not drawn) | -12.2
74 | CN(Cc1ccco1)C(=O)C1CSCN1C(=O)c1cccnc1 (stereo not drawn) | -15.1
75 | Cc1cnn(CCNCCCOc2ccccc2)c1 | -7.1
76 | COc1cc(CNC2CCc3nc(C)nn3C2)cc2c1OCCO2 (stereo not drawn) | -9
77 | Cc1cc(CN2CCN(CCOc3cccc(C#N)c3)CC2)no1 | 5.03
78 | CCc1nc(C)c(C(=O)NCCNc2cnccn2)s1 | 3.09
79 | Cc1nn(C)c(N2CCOCC2)c1CNC(c1cccs1)C(C)C (stereo not drawn) | 6.88
80 | CC(NC(=O)CSCC#N)c1ccccc1 (stereo not drawn) | 6.84
81 | CCc1nc(CN2CCOC(Cn3nc(C)nc3C)C2)no1 (stereo not drawn) | 3.11
82 | O=C(NCC1CCOC1)N1CCN(Cc2ccc3c(c2)CCO3)CC1 (stereo not drawn) | -4.97
83 | O=C(CCNC(=O)C1CCCC1)NCc1ccccc1Cn1cncn1 | -7.76
84 | CC(NC(=O)c1ccc2c(c1)OCC(=O)N2)c1ccccc1F (stereo not drawn) | 0.146
85 | Cc1nc(COc2cccc(C#N)c2)no1 | 2.53
86 | CN(Cc1ccsc1)C(=O)Nc1cccnc1N1CCCC1 | 23
87 | CCc1nc(C)c(C(=O)NCCNc2ncccn2)s1 | -6.37
88 | CC(C)Oc1cccc(CNC(=O)NC(C)(C(=O)O)c2ccco2)c1 (stereo not drawn) | -0.448
89 | Cc1ccc(C)c(CNC(=O)NC(C)(C(=O)O)c2ccco2)c1 (stereo not drawn) | 2.89
90 | Cc1nccn1C1CCCN(C(=O)c2ccc(N3CCCC3)nn2)C1 (stereo not drawn) | -4.33
91 | CN(Cc1cnn(-c2ccccc2)n1)CC1CCCN1c1cccnn1 (stereo not drawn) | 4.15
92 | CC(=O)Nc1nc(C(=O)N2CCCC(n3nc(C)cc3C)C2)cs1 (stereo not drawn) | 31.5
93 | Cc1nc(CN2CCCC2c2c(C)nn(C)c2Cl)no1 (stereo not drawn) | -1.31
94 | CC(C)c1n[nH]c(C2CN(C(=O)C3=COCC3)CCO2)n1 (stereo not drawn) | -3.87
95 | CC(=O)Nc1nc(C(=O)N2CCCC(c3cc(C)[nH]n3)C2)cs1 (stereo not drawn) | -0.899
96 | Cc1noc(NC(=O)c2ccc(Br)s2)n1 | 24.3

Row | Compound | cytotoxicity at 70.5 h [%]
97 | O=C(C1COCCO1)N1CCN(Cc2ccc3c(c2)CCO3)CC1 (stereo not drawn) | 1.06
98 | Cn1ccnc1CN1CCN(CCOc2ccccc2C#N)CC1 | 23.6
99 | Cc1cnc2c(S(=O)(=O)NCC3CCS(=O)(=O)C3)cccc2c1 (stereo not drawn) | 51.3
100 | O=C(NCCc1ccc(Cl)s1)NCc1nnc2n1CCC2 | 8.18
101 | O=C(NCCN1CCc2ccccc2C1)c1scnc1Cl | -1.52
102 | CN(CCCOc1ccc(F)cc1)Cc1nc2c(cnn2C)c(=O)[nH]1 | 4.27
103 | COCCCN(C)Cc1nc2c(cnn2C)c(=O)[nH]1 | 42.4
104 | COc1c(CNC2CCN(c3ncccn3)CC2)c(C(C)C)nn1C | 2.8
105 | COc1c(CNC2CCN(C(=O)C3CC3)CC2)c(C(C)C)nn1C | 0.393
106 | CCN(CC1CCOC1)C(=O)c1ccccc1NS(=O)(=O)CC (stereo not drawn) | -3.45
107 | CC(=O)N1CCCN(C(=O)c2cnc3n[nH]c(C)c3c2)CC1 | 11.1
108 | COC(=O)c1ccc(N2CCN(CCC#N)C(C)C2)cc1 (stereo not drawn) | 11.4
109 | COc1c(CNC2CCN(C(C)(C)C)CC2)c(C(C)C)nn1C | 3.99
110 | Cc1ncc2c(n1)CN(CC(=O)Nc1ccncc1)CC2 | 1.41
111 | Cn1cc(CN2CCCN(C(=O)c3ccc4c(c3)COC4)CC2)cn1 | -4.36
112 | Cc1nccn1C1CCCN(C(=O)c2ccc(N(C)C)nc2)C1 (stereo not drawn) | -7.86
113 | O=C(O)c1cc(S(=O)(=O)Nc2cc(F)ccc2F)cc2c1OCCO2 | -3.33
114 | CCc1ncc2c(n1)CN(Cc1nc(-c3ccccn3)no1)CC2 | 33.7
115 | CC(C)c1noc(C(C)N2CCN(Cc3ccsc3)CC2)n1 (stereo not drawn) | -5.78
116 | CCN(CC1CCOC1)C(=O)c1cccnc1N1CCOCC1 (stereo not drawn) | 0.841
117 | CC(=O)N1CCCN(C(=O)NCc2ccccn2)CC1 | 3.62
118 | CC(C)c1nn(C)c(Cl)c1CNCc1ccc2c(c1)OCCO2 | 3.82
